{"source": "patent US20090305993A1", "about": "“METHODS AND COMPOSITION FOR THE TREATMENT OF GASTROINTESTINAL DISORDERS” (IRONWOOD PHARMACEUTICALS, INC., priority 2006, published 2009)", "key": {"healthy subjects": {"tested_on": "healthy subjects", "experiment": "seven-day oral dosing study in humans, bowel habits", "format": "in vivo, human", "protocol": "Seven daily doses of 30, 100, 300, or 1000 μg of chemically synthesized SEQ ID NO:3 were given to 48 healthy subjects. SEQ ID NO:3 or placebo (vehicle) was administered orally in 5.0 mL 50 mM phosphate buffer (pH 6.0) plus 3×20 mL water rinses and 175 mL water after at least a 10-hour fast. In each dosing group, 8 subjects were randomized to receive SEQ ID NO:3 and 4 subjects were randomized to receive placebo. […] The Mean Ease of Passage (FIG. 15d) of stools was tested for subjects treated with 30-1000 μg SEQ ID NO:3."}, "[1]": {"experiment": "absorbability study in mice, ELISA detection", "format": "in vivo", "settings": "CD1, mouse, serum, IV and oral, FIG. 10a, read-out: bioavailable", "protocol": "To study the pharmacokinetics of SEQ ID NO:3, absorbability studies in mice were performed by administering SEQ ID NO:3 intravaneously via tail vein injection or orally by gavage to 8-week-old CD1 mice. Serum was collected from the animals at various time points and tested for the presence of SEQ ID NO:3 using a competitive enzyme-linked immunoabsorbent assay (Oxoid, ST EIA kit, Cat#TD0700). The assay utilized monoclonal antibodies against ST peptide (antibodies are provided in the Oxoid kit) and synthetically manufactured SEQ ID NO:3."}, "CD rats": {"tested_on": "CD rats", "experiment": "rat gastrointestinal transit assay", "format": "in vivo", "protocol": "The gastrointestinal transit assay was also performed in male and female CD rats (Charles River; Wilmington, Mass.) weighing between 136-191 g with an average weight of 167.6 g. The assay was performed as described above for mice except an average of 5-8 animals were used for each test group and test peptide and 5% activated carbon were administered simultaneously (versus 7 minutes apart). In addition, the animals were sacrificed 10 minutes after the administration of peptide and test compound."}, "carboxypeptidase A": {"molecular_target": "T1, carboxypeptidase A (Homo sapiens, UniProt P15085)", "T1 sequence (P15085 111-419)": "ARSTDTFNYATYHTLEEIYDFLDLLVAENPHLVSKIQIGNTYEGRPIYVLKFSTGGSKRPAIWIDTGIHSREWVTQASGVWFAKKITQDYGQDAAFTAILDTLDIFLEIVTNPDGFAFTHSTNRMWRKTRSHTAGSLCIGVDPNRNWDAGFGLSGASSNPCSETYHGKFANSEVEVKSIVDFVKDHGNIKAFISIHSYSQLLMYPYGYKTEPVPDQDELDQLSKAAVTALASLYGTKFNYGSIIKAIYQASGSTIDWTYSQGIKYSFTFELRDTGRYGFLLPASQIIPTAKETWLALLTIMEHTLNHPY", "experiment": "in vitro proteolytic stability, carboxypeptidase A", "protocol": "The stability of SEQ ID NO:3 in the presence of several mammalian digestive enzymes was determined. SEQ ID NO:3 was exposed to a variety of in vitro conditions including digestive enzymes and low ph environments designed to simulate gastric fluid. SEQ ID NO:3 was incubated with chymotrypsin, trypsin, pepsin, aminopeptidase, carboxypeptidase A, and simulated gastric fluid (sgf) at ph 1.0. Samples were collected at 0, 3, and 24 h for all conditions except pepsin digestion and the SGF. For the latter two conditions, samples were obtained at 0, 1, and 3 h. Negative control samples were prepared for initial and final time points. A separate, positive activity control was run in parallel to SEQ ID NO:3. All samples were analyzed by LC/MS\nFive (5) μL of a 40 μg/mL carboxypeptidase inhibitor (carboxypeptidase inhibitor from potato tuber (Sigma-Aldrich, C0279) stock was added to each control sample (0 and 24 h), for a final concentration of 0.4 μg/mL. All control and test (0, 3 and 24 h) samples were incubated at 37° C. for 5 min. Twenty (20) μL of a 0.01 mg/mL carboxypeptidase A (Carboxypeptidase A from human pancreas; Sigma-Aldrich, C5358) stock was added to each sample. The samples were returned to the 37° C. water bath. The reaction was quenched with 5 μL of a 40 μg/mL carboxypeptidase inhibitor at the proper time point. No extra carboxypeptidase inhibitor was added to the control samples since there was already inhibitor present. Samples were subsequently flash frozen in liquid nitrogen, and stored at −80° C. until analysis. Upon analysis, samples were thawed and transferred to a 1 mL 96-well deep microtiter plate. […] These standards were used to generate a standard curve for quantification of samples. When necessary, the standard curves were also used to calculate the concentration of the corresponding digestion product. Ten (10) μL injections were made of each sample and standard.\nTo further study the SEQ ID NO:3 carboxypeptidase A digestion product, samples of 0.01 mg/mL SEQ ID NO:3 were prepared in the carboxypeptidase A reaction buffer at a total volume of 500 μL in 2 mL eppendorf tubes. Triplicate samples were prepared for the following time points: 0, 15, 30, 60, 120, 180 and 240 min. The samples were incubated at 37° C. for 5 min. Twenty (20) μL of a 0.01 mg/mL carboxypeptidase A stock were added to each sample and returned to the 37° C. water bath. The reactions were quenched with 5 μL of a 40 μg/mL carboxypeptidase inhibitor at the proper time points. Samples were subsequently flash frozen in liquid nitrogen, and stored at −80° C. until analysis. Upon analysis, samples were thawed and transferred to a 1 mL 96-well plate. Standards of SEQ ID NO:3 were prepared in carboxypeptidase A reaction buffer at 0.625, 1.25, 2.50, 5.00, and 10.00 μg/mL concentrations. These standards were used to generate a standard curve for quantification of samples. When necessary, the standard curves were also used to calculate the concentration of the corresponding digestion product. Ten (10) μL injections were made of each sample and standard. If the formation of a digestion product was evident, then a spectral analysis was used to determine the mass of the digestion product, and predict its possible identity."}}, "note": "Where a SMILES comes first, the peptide text is derived from it. Bridges are numbered along the chain shown (N, C = ends).", "data": [{"smiles": "C[C@@H]1NC(=O)[C@@H]2CCCN2C(=O)[C@H](CC(N)=O)NC(=O)[C@@H]2CSSC[C@H](N)C(=O)N[C@H]3CSSC[C@H](NC1=O)C(=O)N[C@@H]([C@@H](C)O)C(=O)NCC(=O)N[C@H](C(=O)N[C@@H](Cc1ccc(O)cc1)C(=O)O)CSSC[C@H](NC(=O)[C@H](Cc1ccc(O)cc1)NC(=O)[C@H](CCC(=O)O)NC3=O)C(=O)N2", "note": "[SEQ ID NO:3] (H-CCEYCCNPACTGCY-OH; disulfide 1-6, 2-10, 5-13; N-terminus and C-terminus assumed)", "values": [{"measurement": "Mean Ease of Passage of stools, baseline versus treatment, placebo versus SEQ ID NO:3", "setting": "healthy subjects; 1000 μg dose group, FIG. 15e", "value": "greatest difference"}, {"measurement": "Mean Stool Weight", "setting": "healthy subjects; seven daily oral doses 30-1000 μg, higher doses, FIG. 15C", "value": "increase"}, {"measurement": "Mean Stool Frequency (stools per week)", "setting": "healthy subjects; seven daily oral doses 30-1000 μg, higher doses, FIG. 15b", "value": "increase"}, {"measurement": "bioavailability", "setting": "[1]", "value": "< 2.2", "unit": "%"}, {"measurement": "intestinal transit, dose dependence", "setting": "CD rats; female rats, FIG. 4e", "value": "increases in a dose dependent manner"}, {"measurement": "intestinal transit", "setting": "CD rats; rat GIT assay, FIG. 4d", "value": "intestinal transit increases"}, {"measurement": "proteolysis by carboxypeptidase A", "setting": "carboxypeptidase A; 37° C., FIG. 13a, 13b", "value": "some proteolysis"}, {"measurement": "Cleavage of SEQ ID NO: 3 by proteolytic substance", "setting": "carboxypeptidase A; Carboxypetidase A, 37° C., up to 24 h", "value": "Yes"}, {"measurement": "average calculated product concentrations", "setting": "carboxypeptidase A; T3 h samples", "value": "1.3 (+/−0.06) μg/mL"}, {"measurement": "average calculated product concentrations", "setting": "carboxypeptidase A; T24 h samples", "value": "1.3 (+/−0.04) μg/mL"}, {"measurement": "calculated concentrations of parent", "setting": "carboxypeptidase A; all samples", "value": "8.4 (+/−1.2) μg/mL"}, {"measurement": "average concentration", "setting": "carboxypeptidase A; carboxypeptidase A digestion of SEQ ID NO:3, T0", "value": "5115 (+/−121) nM"}, {"measurement": "average concentration", "setting": "carboxypeptidase A; carboxypeptidase A digestion of SEQ ID NO:3, T240 (240 min)", "value": "4438 (+/−188) nM"}, {"measurement": "calculated concentrations for the products", "setting": "carboxypeptidase A; time 0 control (with inhibitor)", "value": "0.8 (+/−0.02) μg/mL"}, {"measurement": "calculated concentrations for the products", "setting": "carboxypeptidase A; time 0 samples", "value": "0.8 (+/−0.01) μg/mL"}]}]}
